Each structure is given as a SMILES string. Activity calls are given as the source filed them.

The results in this text go back to ChEMBL document CHEMBL1201862, “PubChem BioAssay data set” (2004).

For one assay, the target named is T1, Coagulation factor XII (Homo sapiens, UniProt P00748).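 Note: activated factor XIIa alpha cleaving a fluorogenic AMC peptide substrate; inhibitor potency from loss of enzyme activity.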
T1 sequence (P00748 whole entry): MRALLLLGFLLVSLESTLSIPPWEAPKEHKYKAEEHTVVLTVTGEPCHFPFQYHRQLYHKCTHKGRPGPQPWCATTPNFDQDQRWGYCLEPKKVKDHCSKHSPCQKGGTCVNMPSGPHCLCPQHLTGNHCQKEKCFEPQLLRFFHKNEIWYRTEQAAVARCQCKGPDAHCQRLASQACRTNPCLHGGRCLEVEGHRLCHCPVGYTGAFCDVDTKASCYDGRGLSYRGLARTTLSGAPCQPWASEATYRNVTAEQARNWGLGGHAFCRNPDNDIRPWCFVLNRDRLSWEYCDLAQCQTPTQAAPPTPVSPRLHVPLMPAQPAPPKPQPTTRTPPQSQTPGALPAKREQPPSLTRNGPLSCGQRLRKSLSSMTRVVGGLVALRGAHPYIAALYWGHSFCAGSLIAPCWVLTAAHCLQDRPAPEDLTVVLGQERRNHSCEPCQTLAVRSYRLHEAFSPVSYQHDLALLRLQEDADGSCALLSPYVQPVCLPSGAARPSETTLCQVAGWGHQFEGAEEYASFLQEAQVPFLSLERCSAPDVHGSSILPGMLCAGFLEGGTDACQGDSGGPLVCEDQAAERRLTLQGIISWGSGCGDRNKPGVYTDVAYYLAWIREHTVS
Format: functional.

Assay [1] in a line: viability of PTEN-deleted HCT116 cells – cell-based, HCT116 PTEN knockout, dose response (AID 1047).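 Note: HCT116 colon tumor cells with PTEN knocked out; cells exposed to compound for 60 hours before readout; potency for loss of cell viability measured by luminescence.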 Format: functional.
The nature of assay [2]: viability of HCT116 lacking mutant beta-catenin – cell-based, human colon tumor, dose response (AID 1045).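 Note: HCT116 colon tumor cells with beta catenin knocked out; cells exposed to compound for 60 hours.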 The format is functional.
The test system of a further assay is Vero. Description: cells. Format: functional. To be noted: Chlorocebus sabaeus.
In assay [3] the target is T2, Polyadenylate-binding protein 1 (Homo sapiens, UniProt P11940). Kind of assay: MLLE binding blockers, Cy5 peptide tracer – biochemical, fluorescence polarization, Cy5-PAM2 peptide, secondary, miRNA deadenylation inhibitor project, dose response (AID 602260). The format is functional. Particulars: read-out: IC50_Mean. Background: Polarisation of emitted light reports the rotation of a fluorescent probe.

Assay [4] has as its target T2, Polyadenylate-binding protein 1. Kind of assay: MLLE domain peptide-binding blockers, IC50 – biochemical, fluorescence polarization, FITC-PAM2 peptide, dose response (AID 602259). To be noted: read-out: IC50_Mean. Format: functional.
For assay [5], the target named is T3, RNA-binding protein pos-1 (Caenorhabditis elegans, UniProt G5EF15).
T3 sequence (G5EF15 whole entry): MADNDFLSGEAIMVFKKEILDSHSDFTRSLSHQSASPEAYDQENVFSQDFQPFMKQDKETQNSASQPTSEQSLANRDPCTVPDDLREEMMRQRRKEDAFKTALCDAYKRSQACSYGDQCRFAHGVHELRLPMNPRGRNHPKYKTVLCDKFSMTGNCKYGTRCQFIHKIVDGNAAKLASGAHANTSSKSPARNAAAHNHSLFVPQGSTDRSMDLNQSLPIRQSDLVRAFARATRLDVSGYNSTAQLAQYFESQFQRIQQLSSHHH
Description: disruptors of C. elegans POS-1 RNA interaction – biochemical, fluorescence polarization, dose response (AID 1964).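 Note: purified POS-1 fused to maltose binding protein made in E. coli; potency of compounds blocking POS-1 binding to fluorescent RNA.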

Assay [6] deals with T4, Zinc finger protein mex-5 (Caenorhabditis elegans, UniProt Q9XUB2).
T4 sequence (Q9XUB2 whole entry): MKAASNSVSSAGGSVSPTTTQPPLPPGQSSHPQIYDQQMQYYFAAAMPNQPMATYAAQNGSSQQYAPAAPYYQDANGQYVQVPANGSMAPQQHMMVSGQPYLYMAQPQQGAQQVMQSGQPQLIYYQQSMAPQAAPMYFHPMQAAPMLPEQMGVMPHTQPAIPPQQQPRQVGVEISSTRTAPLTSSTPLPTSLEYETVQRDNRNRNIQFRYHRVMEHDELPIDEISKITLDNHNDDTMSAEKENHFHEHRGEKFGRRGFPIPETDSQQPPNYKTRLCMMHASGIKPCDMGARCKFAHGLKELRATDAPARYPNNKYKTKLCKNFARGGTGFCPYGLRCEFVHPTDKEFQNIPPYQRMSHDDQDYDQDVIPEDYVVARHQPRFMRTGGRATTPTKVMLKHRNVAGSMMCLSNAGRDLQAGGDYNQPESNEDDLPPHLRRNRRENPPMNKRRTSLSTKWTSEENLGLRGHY
Description: potency of MEX-5 RNA-binding blockers – biochemical, C. elegans, fluorescence polarization, dose response (AID 1960).

In assay [7] the target is T5, Heat shock factor protein 1 (Mus musculus, UniProt P38532).
T5 sequence (P38532 whole entry): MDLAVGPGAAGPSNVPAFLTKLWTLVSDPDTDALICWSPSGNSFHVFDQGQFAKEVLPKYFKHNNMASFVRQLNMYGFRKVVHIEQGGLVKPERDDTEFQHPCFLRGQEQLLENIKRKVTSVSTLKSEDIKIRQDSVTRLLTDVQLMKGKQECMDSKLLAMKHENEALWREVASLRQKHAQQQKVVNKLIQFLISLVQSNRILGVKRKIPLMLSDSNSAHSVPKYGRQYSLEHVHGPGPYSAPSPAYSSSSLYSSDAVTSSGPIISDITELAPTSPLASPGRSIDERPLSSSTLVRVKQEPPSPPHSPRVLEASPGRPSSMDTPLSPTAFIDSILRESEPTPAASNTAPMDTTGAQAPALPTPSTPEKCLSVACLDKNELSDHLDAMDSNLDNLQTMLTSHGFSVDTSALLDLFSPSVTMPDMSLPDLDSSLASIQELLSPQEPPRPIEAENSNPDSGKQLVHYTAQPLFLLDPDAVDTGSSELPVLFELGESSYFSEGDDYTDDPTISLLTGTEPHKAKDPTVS
Description: decrease of HSF1-responsive luciferase luminescence – cell-based, NIH3T3, dose retest, confirmation (AID 2382).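 Note: NIH3T3 fibroblasts with HSF1-driven luciferase reporter stressed by proteasome inhibitor MG132; luminescence from HSF1-driven luciferase expression after 8 hours of MG132 stress.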 Format: functional.

Assay [8] addresses Induced myeloid leukemia cell differentiation protein Mcl-1 (Homo sapiens, UniProt Q07820). The format is functional.
For assay [9], the target named is T6, Carboxy-terminal domain RNA polymerase II polypeptide A small phosphatase 1 (Homo sapiens, UniProt Q9GZU7).
T6 sequence (Q9GZU7 whole entry): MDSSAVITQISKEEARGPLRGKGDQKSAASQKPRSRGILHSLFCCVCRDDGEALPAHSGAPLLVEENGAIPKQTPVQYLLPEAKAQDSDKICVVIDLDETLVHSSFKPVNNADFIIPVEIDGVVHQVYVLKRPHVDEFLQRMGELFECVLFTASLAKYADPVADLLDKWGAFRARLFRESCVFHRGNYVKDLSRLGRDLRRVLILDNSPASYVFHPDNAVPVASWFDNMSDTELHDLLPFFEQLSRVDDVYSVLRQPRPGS
Description: CTDSP1 inhibitors, concentration-response, biochemical, absorbance readout, ultra-high-throughput screen actives (AID 540297). The format is functional.

A short description of assay [10]: THP-1 cell cytotoxicity, dose response, cytotoxicity control for non-replicating M. tuberculosis project (AID 489025). Format: functional.
Assay [11] is described as follows: cells. The format is functional.
Assay [12] is described as follows: cells. The format is functional, cell-based.
Assay [13] is described as follows: cells. Format: functional, cell-based. The source holds these as a separate data set.
Assay [14] concerns Streptococcus sp. 'group A'. Kind of assay: Streptococcus pyogenes SK(-)GAS viability under kanamycin – luminescence, BacTiterGlo, confirmation, counter-screen for streptokinase expression inhibitor project, dose response (AID 1900). The format is functional, organism-based. Background: A counterscreen serves to expose hits that act by an unwanted route or on another target.
The test system of the next assay is Streptococcus. Kind of assay: GAS UMAA2166 growth inhibition – luminescence, BacTiterGlo, counter-screen for streptokinase expression inhibitor project, dose response (AID 1915).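 Note: potency for reduction of bacterial viability or growth.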 Format: functional, organism-based.
For assay [15], the target named is T5, Heat shock factor protein 1. Description: enhancement of HSF1-driven luciferase signal – cell-based, NIH3T3, luminescence, dose retest, confirmation (AID 435004).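 Note: stress induced by proteasome inhibitor MG132 added 30 min after compound; luciferase reporter driven by HSF1 response element in NIH3T3 cells; actives raise luminescence as potentiators of the MG132 stress response.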 The format is functional.
Assay [16] concerns the target T7, High affinity choline transporter 1 (Homo sapiens, UniProt Q9GZV3).
T7 sequence (Q9GZV3 whole entry): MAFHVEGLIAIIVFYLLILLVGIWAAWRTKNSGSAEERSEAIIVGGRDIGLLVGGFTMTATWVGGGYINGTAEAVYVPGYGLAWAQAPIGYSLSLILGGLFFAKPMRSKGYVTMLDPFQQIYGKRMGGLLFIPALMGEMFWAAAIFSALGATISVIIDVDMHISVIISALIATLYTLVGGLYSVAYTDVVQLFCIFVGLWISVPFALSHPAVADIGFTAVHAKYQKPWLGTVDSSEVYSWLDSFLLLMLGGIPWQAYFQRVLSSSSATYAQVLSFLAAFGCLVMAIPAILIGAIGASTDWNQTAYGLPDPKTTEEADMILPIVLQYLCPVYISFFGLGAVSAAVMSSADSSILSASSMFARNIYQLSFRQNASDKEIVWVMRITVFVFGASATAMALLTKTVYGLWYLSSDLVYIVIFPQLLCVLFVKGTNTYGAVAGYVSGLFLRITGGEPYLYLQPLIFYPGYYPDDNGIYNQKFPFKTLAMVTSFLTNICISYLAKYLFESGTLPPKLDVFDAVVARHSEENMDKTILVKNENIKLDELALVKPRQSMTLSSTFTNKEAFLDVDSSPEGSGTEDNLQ
Kind of assay: human choline transporter blockers, potency – cell-based, 5-point CRC, membrane potential dye, dose response (AID 504840). Format: functional.

T2 sequence (P11940 whole entry): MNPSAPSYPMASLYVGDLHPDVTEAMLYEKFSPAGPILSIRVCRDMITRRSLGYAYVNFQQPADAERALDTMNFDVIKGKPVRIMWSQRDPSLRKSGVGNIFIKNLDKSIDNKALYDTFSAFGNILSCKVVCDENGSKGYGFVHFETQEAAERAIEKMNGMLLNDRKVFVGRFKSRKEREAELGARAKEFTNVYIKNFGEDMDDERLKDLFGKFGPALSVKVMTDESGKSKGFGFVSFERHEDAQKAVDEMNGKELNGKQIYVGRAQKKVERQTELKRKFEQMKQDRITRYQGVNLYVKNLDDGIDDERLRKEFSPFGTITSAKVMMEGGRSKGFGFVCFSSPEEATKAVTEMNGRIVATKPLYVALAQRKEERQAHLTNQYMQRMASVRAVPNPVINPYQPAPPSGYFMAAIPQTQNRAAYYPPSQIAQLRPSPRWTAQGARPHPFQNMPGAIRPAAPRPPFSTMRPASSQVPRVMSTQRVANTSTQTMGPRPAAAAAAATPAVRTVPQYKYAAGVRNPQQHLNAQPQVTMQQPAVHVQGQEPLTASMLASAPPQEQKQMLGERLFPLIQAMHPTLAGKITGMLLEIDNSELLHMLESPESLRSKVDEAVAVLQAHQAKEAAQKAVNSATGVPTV
Chain of Induced myeloid leukemia cell differentiation protein Mcl-1 (Q07820 whole entry, the tested form may be a part): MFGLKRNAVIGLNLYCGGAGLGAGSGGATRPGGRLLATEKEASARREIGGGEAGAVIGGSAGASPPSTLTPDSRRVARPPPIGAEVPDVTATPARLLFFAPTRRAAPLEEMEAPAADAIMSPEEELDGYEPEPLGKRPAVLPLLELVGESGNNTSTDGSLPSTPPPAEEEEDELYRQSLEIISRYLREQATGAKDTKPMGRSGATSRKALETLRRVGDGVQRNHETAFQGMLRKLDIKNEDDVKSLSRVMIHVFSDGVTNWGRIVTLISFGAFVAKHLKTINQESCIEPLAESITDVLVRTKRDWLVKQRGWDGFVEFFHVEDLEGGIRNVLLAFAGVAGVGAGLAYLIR

For `CCCn1cc(CN2CCCC(C(=O)c3cccc(OC)c3)C2)c(C)n1` (stereo not drawn), the IC50 on Coagulation factor XII is > 50 µM (inactive). What is called EC50 is the concentration at which the effect is half-maximal. As a reminder, the CC50 is the concentration that lowers cell viability or growth by half. Regarding `Cc1cccc(OCC(O)Cn2c(=N)n(CCN3CCCCC3)c3ccccc32)c1` (stereo not drawn), the concentration for a half-maximal effect (EC50) was 7.39 µM (active) in [1] and 6.6 µM (active) in assay [2]. Besides, in the assay with Vero, the CC50 is 15 µM (active). Turning to `CCN(CC)c1ccc(/C=N/NS(=O)(=O)c2cccc([N+](=O)[O-])c2)cc1`, the IC50 at Coagulation factor XII was > 50 µM (inactive). For the compound `CSc1nc2c(=S)[nH]c(=S)[nH]c2s1`, the IC50 in [3] and in assay [4] was > 66 µM (inactive) throughout. For the compound `Cc1cc2cc(CNC(=O)COc3ccccc3)ccc2n1C`, the IC50 in assay [3] and in assay [4] was > 66 µM (inactive) each time. For `Cc1c(N=C2Nc3cccc4cccc2c34)c(=O)n(-c2ccccc2)n1C`, the EC50 in assay [5] and in assay [6] was > 300 µM (not active) throughout. Turning to `CCC(C)[C@H](NC(=O)Nc1ccc(C(C)=O)cc1)C(=O)OC` (stereo partly drawn), the IC50 on Coagulation factor XII was > 50 µM (inactive). As to `Cc1nn(CC(=O)N2CCc3ccccc3C2)c(C)c1[N+](=O)[O-]`, on Coagulation factor XII, the IC50 was > 50 µM (inactive). On to `Cc1ccc(S(=O)(=O)Nc2ccccc2F)cc1C(=O)NNC(=O)c1csc(N2CCOCC2)n1`, for which the figures for the EC50 in [5] and in [6] were 30.8 µM (active) and 23.3 µM (active), respectively. In the same order, the values of `COc1ccc(C(=O)NC2(C(F)(F)F)C(=O)N(Cc3ccco3)C3=C2C(=O)CC(C)(C)C3)cc1OC` (stereo not drawn) are > 300 µM (not active) and > 300 µM (not active). Turning to `CC(C)c1nc(SCC(=O)c2ccc(F)cc2)c2ccccc2n1`, the EC50 in assay [7] is listed as > 195 µM (not active). In addition, the IC50 in assay [3] and in assay [4] was > 66 µM (inactive) each time. As for `O=C(COc1ccc2ccccc2c1)NNC(=O)c1ccc([N+](=O)[O-])cc1`, the figures for the IC50 in [8] and in [9] were 7.07 µM (active) and 6.67 µM (active), respectively. For `CS(=O)(=O)N(Cc1ccccc1)c1ccc(C(=O)NC2CCCCC2O)cc1` (stereo not drawn), the IC50 at Coagulation factor XII was > 50 µM (inactive). As to `COc1ccc(C(=O)NCC(=O)N/N=C/c2ccc([N+](=O)[O-])o2)cc1OC`, in [10], the half-maximal cytotoxic concentration (CC50) was 24 µM (active). Besides, the IC50 in the assay “cells [11]” is 4.08 µM (active). Turning to `CCOc1ccc(NC(=O)COc2ccccc2)c([N+](=O)[O-])c1`, the EC50 was > 300 µM (not active) in [5], > 350 µM (not active) in “cells [12]”, > 300 µM (not active) in assay [6] and 11.9 µM (active) in “cells [13]”. As to `COc1ccc(C(=O)NNC(=S)NC(=O)c2ccc(F)cc2)cc1Br`, the EC50 in assay [14] was 0.378 µM (active); in the assay on Streptococcus it was 1.73 µM (active). In addition, in the assay on Vero, the CC50 was > 25 µM (active). On to `CN1CCN(S(=O)(=O)c2ccc(NC(=S)NC(=O)C(C)(C)C)cc2)CC1`, for which the IC50 in assay [3] and in [4] was > 66 µM (inactive) each time.

For `CC(C)OC(=O)c1cccc(NC(=O)CSc2nnc(N)s2)c1`, the IC50 on Coagulation factor XII is > 50 µM (inactive). As for `Cc1ccc(C(=O)Oc2oc(-c3ccccc3)nc2/C=N/c2ccc(N(C)C)cc2)cc1`, the values for the EC50 in assay [5], in assay [6] and in assay [15] were > 300 µM (not active), > 300 µM (inconclusive) and 6.88 µM (active), respectively. As for `CCOC1(OCC)N=C(N)C2(C#N)C(c3ccc(NC(C)=O)cc3)C12C#N` (stereo not drawn), the EC50 in [5] was 155 µM (active); in [6], 79.4 µM (active).

For the compound `COc1ccc(CN(C)C(=S)Nc2ccc(Cl)cc2)cc1`, at Coagulation factor XII, the IC50 was > 50 µM (inactive). On to `CC(=O)c1ccccc1-c1csc2ncnc(Sc3nnnn3C)c12`, for which the CC50 with Vero was > 25 µM (active). `COc1cc(NC(=O)CSc2nnc3ccc(-c4ccncc4)nn23)cc(OC)c1`: the EC50 in assay [5] and in assay [6] was > 300 µM (not active) in each case. Regarding `CCOC(=O)c1ccccc1NC(=O)c1cn(-c2ccc(OC)cc2)c(=O)c2ccccc12`, in the assay on Vero, the CC50 is > 25 µM (active). On to `Cc1ccc(NC(S)=Nc2ccc3[nH]c(O)nc3c2)cc1C`, for which the figures for the IC50 in assay [16], in assay [3] and in assay [4] were 14.5 µM (active), > 66 µM (inactive) and > 66 µM (inactive), respectively.
